Measured values published in patent US9757432B2, “Materials and methods useful for treating glioblastorna” (Ohio State Innovation Foundation, priority 2012, dated 2017).
Residues, ends and D or L forms follow the SMILES beside them. *: point of attachment. Cbz = O=C(OCc1ccccc1)*; CH2F = FC*

System: glioma cells
Assay: Rescue of SapC-DOPS-induced killing by pathway inhibitors
Assay type: cell-based
Details: inhibitor given with SapC-DOPS
From the text: Synergy analysis was completed using CompuSyn software.

Row | Structure (SMILES) | rescue of SapC-DOPS-induced killing
1 | COC(=O)C[C@H](NC(=O)[C@H](C)NC(=O)[C@@H](NC(=O)OCc1ccccc1)C(C)C)C(=O)CF [Z-VAD-FMK] (Cbz-Val-Ala-Asp(OMe)-CH2F) | did not rescue
2 | Cn1cnc(N)c2ncnc1-2 [3-methyladeneine] | significant rescue
3 | CO/C1=C\C(C)=C\[C@@H](C)[C@@H](O)[C@@H](C)C/C(C)=C/C=C/[C@H](OC)[C@@H]([C@@H](C)[C@@H](O)[C@H](C)[C@@]2(O)C[C@@H](O)[C@H](C)[C@@H](C(C)C)O2)OC1=O [bafilomycin Al] | significant rescue
